Data as given in patent publication US11591355B2 (Peloton Therapeutics, Inc., priority 2017, dated 2023).

Legend:
Human CD73 = target: T1, Human CD73 (Homo sapiens, UniProt P21589); test: CD73 Enzyme Assay; assay type: biochemical; settings: 0.25 nM hCD73, 25 μM AMP, kinetic read at 360 nm; read-out: CD73 Enzyme Assay IC50
T1 construct: purchased R&D Systems; host or cells: CHO cells
T1 sequence (P21589 27-549): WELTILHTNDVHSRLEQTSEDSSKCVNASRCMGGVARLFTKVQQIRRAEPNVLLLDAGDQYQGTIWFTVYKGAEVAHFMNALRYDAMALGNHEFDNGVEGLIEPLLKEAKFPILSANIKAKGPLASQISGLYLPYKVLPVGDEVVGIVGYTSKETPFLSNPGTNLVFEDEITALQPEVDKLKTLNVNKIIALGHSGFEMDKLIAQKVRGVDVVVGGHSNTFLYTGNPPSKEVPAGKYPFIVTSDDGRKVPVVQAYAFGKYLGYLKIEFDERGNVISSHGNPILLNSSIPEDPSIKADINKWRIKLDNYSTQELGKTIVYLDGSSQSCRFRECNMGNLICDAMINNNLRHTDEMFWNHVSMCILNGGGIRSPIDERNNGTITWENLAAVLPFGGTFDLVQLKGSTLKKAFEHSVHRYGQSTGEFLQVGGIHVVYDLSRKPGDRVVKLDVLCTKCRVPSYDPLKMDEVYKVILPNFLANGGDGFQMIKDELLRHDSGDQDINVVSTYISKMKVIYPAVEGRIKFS

[1] = target: T2, CD73 on U138 human neuroglioma cells (Homo sapiens, UniProt P21589); test: CD73 Cell-Based Assay; settings: U138 cells, AMP substrate, 2 hours at 37° C., inorganic phosphate by malachite green
T2 construct: U138 cells were obtained from ATCC and cultured in DMEM with 10% FBS; host or cells: U138 human neuroglioma cells
T2 sequence (P21589 27-549): T1 sequence (P21589 27-549)
Procedure, shortened: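 Whole U138 cells washed free of phosphate were incubated with 200 μM AMP (mixture concentration before equal-volume addition) plus compound in HEPES-buffered saline, pH 7.4, for 2 h at 37 °C, 5% CO2. Adenosine-forming activity read as inorganic phosphate released into supernatant by malachite green.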

SMILES | IC50 (Human CD73) | IC50 [1]
C[C@H](Nc1nc(Cl)nc2c1ncn2[C@@H]1O[C@H](COCP(=O)(O)O)[C@@H](O)[C@H]1O)c1ccccc1 [Compound 21, ((((2R,3S,4R,5R)-5-(2-chloro-6-(((S)-1-phenylethyl)amino)-9H-purin-9-yl)-3,4-dihydroxytetrahydrofuran-2-yl)methoxy)methyl)phosphonic acid] | 10 to 100 nM | 10 to 100 nM
O=P(O)(O)COC[C@H]1O[C@@H](n2ccc3c(Sc4ccccc4)nc(Cl)nc32)[C@H](O)[C@@H]1O [Compound 207, [(2R,3S,4R,5R)-5-(2-chloro-4-phenyl-sulfanyl-pyrrolo[2,3-d]-pyrimidin-7-yl)-3,4-dihydroxy-tetrahydro-furan-2-yl]methoxy-methylphosphonic acid] | 100 to 1000 nM | 100 to 1000 nM
CC(C)C(=O)COP(=O)(O)COC[C@H]1O[C@@H](n2ccc3c(NC4CCCC4)nc(Cl)nc32)[C@H](O)[C@@H]1O [Compound 222, [(2R,3S,4R,5R)-5-[2-chloro-4-(cyclopentyl-amino)pyrrolo[2,3-d]-pyrimidin-7-yl]-3,4-dihydroxy-tetrahydro-furan-2-yl]methoxy-methyl-(3-methyl-2-oxo-butoxy)phosphinic acid] | 100 to 1000 nM | 100 to 1000 nM
Cc1cc2c(NC3CCCC3)nc(Cl)nc2n1[C@@H]1O[C@H](COCP(=O)(O)O)[C@@H](O)[C@H]1O [Compound 200, [(2R,3S,4R,5R)-5-[2-chloro-4-(cyclopentyl-amino)-6-methyl-pyrrolo[2,3-d]-pyrimidin-7-yl]-3,4-dihydroxy-tetrahydro-furan-2-yl]methoxy-methylphosphonic acid] | 10 to 100 nM | 10 to 100 nM
N#Cc1nc(NC2CCOCC2)c2ccn([C@@H]3O[C@H](COCP(=O)(O)O)[C@@H](O)[C@H]3O)c2n1 [Compound 120, [(2R,3S,4R,5R)-5-[2-cyano-4-(tetrahydro-pyran-4-ylamino)-pyrrolo[2,3-d]-pyrimidin-7-yl]-3,4-dihydroxy-tetrahydro-furan-2-yl]methoxy-methylphosphonic acid] | 100 to 1000 nM | 10 to 100 nM
O=P(O)(O)COC[C@H]1O[C@@H](n2ccc3c(NC4CCCC4)nc(O)nc32)[C@H](O)[C@@H]1O [Compound 250, [(2R,3S,4R,5R)-5-[4-(cyclopentylamino)-2-hydroxy-pyrrolo[2,3-d]pyrimidin-7-yl]-3,4-dihydroxy-tetrahydro-furan-2-yl]methoxy-methylphosphonic acid] | 10 to 100 nM | 10 to 100 nM
N#Cc1cn([C@@H]2O[C@H](COCP(=O)(O)O)[C@@H](O)[C@H]2O)c2nc(Cl)nc(NC3CCCC3)c12 [Compound 209, [(2R,3S,4R,5R)-5-[2-chloro-5-cyano-4-(cyclopentylamino)-pyrrolo[2,3-d]-pyrimidin-7-yl]-3,4-dihydroxy-tetrahydro-furan-2-yl]methoxy-methylphosphonic acid] | 100 to 1000 nM | 100 to 1000 nM
C[C@H](Nc1nc(Cl)nc2c1ccn2[C@@H]1O[C@H](CS(=O)(=O)CP(=O)(O)O)[C@@H](O)[C@H]1O)c1ccc(F)cc1F [Compound 183, [(2S,3S,4R,5R)-5-[2-chloro-4-[[(1S)-1-(2,4-difluorophenyl)ethyl]-amino]pyrrolo[2,3-d]-pyrimidin-7-yl]-3,4-dihydroxy-tetrahydro-furan-2-yl]methyl-sulfonylmethylphos-phonic acid] | < 10 nM | < 10 nM
O=P(O)(O)COC[C@H]1O[C@@H](n2ccc3c(NC4CCCC4)nc(Oc4cccnc4)nc32)[C@H](O)[C@@H]1O [Compound 248, [(2R,3S,4R,5R)-5-[4-(cyclopentylamino)-2-(3-pyridyloxy)pyrrolo-[2,3-d]pyrimidin-7-yl]-3,4-dihydroxy-tetra-hydrofuran-2-yl]meth-oxymethylphosphonic acid] | 100 to 1000 nM | 100 to 1000 nM
N#Cc1nc(NC2CCCCC2)c2ccn([C@@H]3O[C@H](COCP(=O)(O)O)[C@@H](O)[C@H]3O)c2n1 [Compound 119, [(2R,3S,4R,5R)-5-[2-cyano-4-(cyclohexyl-amino)pyrrolo[2,3-d]-pyrimidin-7-yl]-3,4-dihydroxy-tetrahydro-furan-2-yl]methoxy-methylphosphonic acid] | < 10 nM | < 10 nM

Continued, values first:

IC50 (Human CD73) | IC50 [1] | SMILES
< 10 nM | 10 to 100 nM | C[C@H](Nc1nc(Cl)nc2c1ccn2[C@@H]1O[C@H](CS(=O)(=O)CP(=O)(O)O)[C@@H](O)[C@H]1O)c1ccccc1 [Compound 153, [(2S,3S,4R,5R)-5-[2-chloro-4-[[(1S)-1-phenylethyl]amino]-pyrrolo[2,3-d]-pyrimidin-7-yl]-3,4-dihydroxy-tetrahydro-furan-2-yl]methyl-sulfonylmethylphos-phonic acid]
< 10 nM | < 10 nM | O=P(O)(O)COC[C@H]1O[C@@H](n2ccc3c(N4CCCC4)nc(Cl)nc32)[C@H](O)[C@@H]1O [Compound 190, [(2R,3S,4R,5R)-5-(2-chloro-4-pyrrolidin-1-yl-pyrrolo[2,3-d]-pyrimidin-7-yl)-3,4-dihydroxy-tetrahydro-furan-2-yl]methoxy-methylphosphonic acid]
< 10 nM | < 10 nM | C[C@H](Nc1nc(Cl)nc2c1ccn2[C@@H]1O[C@H](CS(=O)(=O)CP(=O)(O)O)[C@@H](O)[C@H]1O)c1ccc(C#N)cc1 [Compound 181, [(2S,3S,4R,5R)-5-[2-chloro-4-[[(1S)-1-(4-cyanophenyl)ethyl]-amino]pyrrolo[2,3-d]-pyrimidin-7-yl]-3,4-dihydroxy-tetrahydro-furan-2-yl]methyl-sulfonylmethylphos-phonic acid]
< 10 nM | < 10 nM | C[C@@H](Nc1nc(Cl)nc2c1ccn2[C@@H]1O[C@H](COCP(=O)(O)O)[C@@H](O)[C@H]1O)c1ccc(F)cc1 [Compound 69, [(2R,3S,4R,5R)-5-[2-chloro-4-[[(1R)-1-(4-fluorophenyl)ethyl]-amino]pyrrolo[2,3-d]-pyrimidin-7-yl]-3,4-dihydroxy-tetrahydro-furan-2-yl]methoxy-methylphosphonic acid]
< 10 nM | < 10 nM | CC(C)Nc1nc(Cl)nc2c1ccn2[C@@H]1O[C@H](COCP(=O)(O)O)[C@@H](O)[C@H]1O [Compound 92, [(2R,3S,4R,5R)-5-[2-chloro-4-(isopropyl-amino)pyrrolo[2,3-d]-pyrimidin-7-yl]-3,4-dihydroxy-tetrahydro-furan-2-yl]methoxy-methylphosphonic acid]
< 10 nM | < 10 nM | CC(O)COc1nc(NC2CCCC2)c2ccn([C@@H]3O[C@H](COCP(=O)(O)O)[C@@H](O)[C@H]3O)c2n1 (stereo partly drawn) [Compound 263, [(2R,3S,4R,5R)-5-[4-(cyclopentylamino)-2-(2-hydroxypropoxy)-pyrrolo[2,3-d]pyrimidin-7-yl]-3,4-dihydroxy-tetrahydrofuran-2-yl]-methoxymethylphos-phonic acid]
< 10 nM | 10 to 100 nM | C[C@@H](Nc1cc(Cl)nc2c1ccn2[C@@H]1O[C@H](COCP(=O)(O)O)[C@@H](O)[C@H]1O)c1ccccc1 [Compound 134, [(2R,3S,4R,5R)-5-[6-chloro-4-[[(1R)-1-phenylethyl]amino]pyrrolo[2,3-b]pyridin-1-yl]-3,4-dihydroxy-tetrahydrofuran-2-yl]methoxymethylphosphonic acid]
< 10 nM | < 10 nM | O=P(O)(O)CS(=O)(=O)C[C@H]1O[C@@H](n2ccc3c(NC4CC5CC5C4)nc(Cl)nc32)[C@H](O)[C@@H]1O (stereo partly drawn) [Compound 159, [(2S,3S,4R,5R)-5-[4-(3-bicyclo[3.1.0]-hexanylamino)-2-chloro-pyrrolo[2,3-d]-pyrimidin-7-yl]-3,4-dihydroxy-tetrahydro-furan-2-yl]methyl-sulfonylmethylphos-phonic acid]
< 10 nM | < 10 nM | O=P(O)(O)COC[C@H]1O[C@@H](n2ccc3c(N(CC4CC4)C4CCCC4)nc(Cl)nc32)[C@H](O)[C@@H]1O [Compound 196, [(2R,3S,4R,5R)-5-[2-chloro-4-[cyclopentyl-(cyclopropylmethyl)-amino]pyrrolo[2,3-d]-pyrimidin-7-yl]-3,4-dihydroxy-tetrahydro-furan-2-yl]methoxy-methylphosphonic acid]
< 10 nM | < 10 nM | O=P(O)(O)COC[C@H]1O[C@@H](n2ccc3c(NC4CCCC4)nc(C#CC4CC4)nc32)[C@H](O)[C@@H]1O [Compound 255, [(2R,3S,4R,5R)-5-[4-(cyclopentylamino)-2-(2-cyclopropyl-ethynyl)pyrrolo[2,3-d]-pyrimidin-7-yl]-3,4-dihydroxy-tetrahydro-furan-2-yl]methoxy-methylphosphonic acid]
< 10 nM | 10 to 100 nM | C[C@H](Nc1nc(Cl)nc2c1c(F)cn2[C@@H]1O[C@H](COCP(=O)(O)O)[C@@H](O)[C@H]1O)c1ccccc1 [Compound 76, ((((2R,3S,4R,5R)-5-(2-chloro-5-fluoro-4-(((S)-1-phenylethyl)amino)-7H-pyrrolo[2,3-d]pyrimidin-7-yl)-3,4-dihydroxytetrahydrofuran-2-yl)methoxy)methyl)phosphonic acid]
